The subject of series [1] is Rats. Briefly: Acute intracisternal toxicity (method of Melartin et al.), rats. The format is in vivo. As for the experimental part:
(§1) Acute intracisternal toxicity was determined by the method of E. Melartin, P. Tuohimaa, R. Dabb, Investigative Radiology, 1970, vol. 5, n°1, 13-21.

Series [2] deals with proteins (Homo sapiens, UniProt P02768). Briefly: Protein binding, Brodersen technique. Format: in vitro ADME. From the text: The degree of the interaction with proteins is an index of the tolerance of contrast media. The lower this interaction, the better the tolerance.
The protein binding was investigated according to the Brodersen technique (J. of Clinical Investigation, 1974, vol. 4, 1353-1364).

Series [3] has as its system Mice. Briefly: Acute intracisternal toxicity (method of Melartin et al.), mice. Format: in vivo. On the procedure: as §1

proteins, sequence (P02768 25-609): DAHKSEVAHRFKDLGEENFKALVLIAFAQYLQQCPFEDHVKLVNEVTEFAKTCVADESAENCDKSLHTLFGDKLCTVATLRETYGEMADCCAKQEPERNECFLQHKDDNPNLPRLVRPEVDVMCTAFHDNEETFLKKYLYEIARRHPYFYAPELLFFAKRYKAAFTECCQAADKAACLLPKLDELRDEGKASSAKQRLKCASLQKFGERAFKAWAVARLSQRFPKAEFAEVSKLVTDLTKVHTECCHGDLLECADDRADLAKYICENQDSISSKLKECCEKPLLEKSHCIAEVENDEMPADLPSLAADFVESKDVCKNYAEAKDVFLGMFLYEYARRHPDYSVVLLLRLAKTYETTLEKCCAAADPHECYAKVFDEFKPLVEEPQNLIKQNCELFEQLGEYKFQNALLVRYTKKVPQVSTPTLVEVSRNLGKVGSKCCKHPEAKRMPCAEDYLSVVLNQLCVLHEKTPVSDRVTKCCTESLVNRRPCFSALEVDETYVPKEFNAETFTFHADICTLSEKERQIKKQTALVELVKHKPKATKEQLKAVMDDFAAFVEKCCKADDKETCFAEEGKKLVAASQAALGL

In the case of `CNC(=O)c1c(I)c(NC(C)=O)c(I)c(C(=O)O)c1I` [Contrix (methylglucamine iothalamate), methylglucamine iothalamate], the “Acute toxicity IC (DL50) Rats” value in series [1] is recorded as 0.028 mole/rat. In series [2], `CNC(=O)c1c(I)c(C(=O)NCC(=O)Nc2c(I)c(C(=O)O)c(I)c(C(=O)NCCO)c2I)c(I)c(N(C)C(C)=O)c1I` [Methylglucamine ioxaglate] gave a dissociation constant Kd of 8.2 mM. Take `CC(=O)Nc1c(I)c(C(=O)O)c(I)c(C(=O)NCCO)c1I` [Telebrix]: the “Acute toxicity IC (DL50) Mice” value in series [3] is 0.2 g Eq iodine/kg.

`O=C(CCCCC(=O)Nc1c(I)cc(I)c(C(=O)O)c1I)Nc1c(I)cc(I)c(C(=O)O)c1I` [Methylglucamine adipiodone] gave a Kd in series [2] of 0.0781 mM. In other words, the double-digit micromolar range.

For orientation: Kd means the free concentration of one partner at which half of the binding sites on the other are occupied at equilibrium, for simple one-to-one binding.

The values are drawn from US4474747A, “Process for increasing the tolerance of X-ray contrast media, and contrast media obtained thereby” (Guerbet S.A., priority 1981, dated 1984).
